Data from US10336697B2, “Spiro[cyclobutane-1,3′-indolin]-2′-one derivatives as bromodomain inhibitors” (Orion Corporation, priority 2015, dated 2019).

target: Bet BRD4 full length bromo-domain protein (Homo sapiens, UniProt O60885); test: Bet bromodomain TR-FRET assay (displacement of acetyl histone peptide); type: binding; settings: Bet BRD4 full length bromodomain protein, 300 nM acetyl histone peptide substrate, read-out: IC50

SMILES	IC50 [nM]
CN1CCc2ccc(-c3cc(NS(=O)(=O)c4ccc(F)cc4F)cc4c3NC(=O)C43CCC3)cc2C1=O [Compound 6, 2,4-Difluoro-N-(7′-(2-methyl-1-oxo-1,2,3,4-tetrahydroisoquinolin-7-yl)-2′-oxospiro[cyclobutane-1,3′-indolin]-5′-yl)benzenesulfonamide]	600 to 1000
CN1CCC(Oc2cc(NC(=O)c3ccc(Cl)cc3F)cc3c2NC(=O)C32CCC2)CC1 [compound 224, 4-Chloro-2-fluoro-N-(7′-((1-methylpiperidin-4-yl)oxy)-2′-oxospiro[cyclobutane-1,3′-indolin]-5′-yl)benzamide]	> 1000
CN1CCC(NC(=O)c2cc(N(C)S(=O)(=O)c3ccc(F)cc3F)cc3c2NC(=O)C32CCC2)CC1 [Compound 72, 5′-((2,4-Difluoro-N-methylphenyl)sulfonamido)-N-(1-methylpiperidin-4-yl)-2′-oxospiro[cyclobutane-1,3′-indoline]-7′-carboxamide]	> 1000
CN1CCC(N(C)C(=O)c2cc(NS(=O)(=O)c3ccc(F)cc3F)cc3c2NC(=O)C32CCC2)CC1 [Compound 53, 5′-(2,4-Difluorophenylsulfonamido)-N-methyl-N-(1-methylpiperidin-4-yl)-2′-oxospiro[cyclobutane-1,3′-indoline]-7′-carboxamide]	> 1000
O=C1Nc2c(-c3ccc4cn[nH]c4c3)cc(NS(=O)(=O)c3ccc(F)cc3F)cc2C12CCC2 [Compound 7, N-(7′-(1H-indazol-6-yl)-2′-oxospiro[cyclobutane-1,3′-indolin]-5′-yl)-2,4-difluorobenzenesulfonamide]	600 to 1000
CC(Oc1cc(NS(=O)(=O)c2ccc(Cl)cc2F)cc2c1NC(=O)C21CCC1)c1ccccn1 (single isomer, unassigned) [Compound 155, 4-Chloro-2-fluoro-N-(2′-oxo-7′-(1-(pyridin-2-yl)ethoxy)spiro[cyclobutane-1,3′-indolin]-5′-yl)benzenesulfonamide]	600 to 1000
O=C(NC1CCCNC1)c1cc(NS(=O)(=O)c2ccc(F)cc2F)cc2c1NC(=O)C21CCC1 (single isomer, unassigned) [Compound 67, 5′-(2,4-Difluorophenylsulfonamido)-2′-oxo-N-(piperidin-3-yl)spiro[cyclobutane-1,3′-indoline]-7′-carboxamide]	600 to 1000
O=C1Nc2c(-c3ccnc(O)c3)cc(NS(=O)(=O)c3ccc(F)cc3F)cc2C12CCC2 [Compound 100, 2,4-difluoro-N-(7′-(2-hydroxypyridin-4-yl)-2′-oxospiro[cyclobutane-1,3′-indolin]-5′-yl)benzenesulfonamide]	> 1000
COc1cc(Cl)ccc1S(=O)(=O)Nc1cc(OC2CCN(C)CC2)c2c(c1)C1(CCC1)C(=O)N2 [compound 188, 4-Chloro-2-methoxy-N-(7′-((1-methylpiperidin-4-yl)oxy)-2′-oxospiro[cyclobutane-1,3′-indolin]-5′-yl)benzenesulfonamide]	< 600
C=C(c1nccs1)c1cc(NS(=O)(=O)c2ccccc2OC)cc2c1NC(=O)C21CCC1 [Compound 172, 2-Methoxy-N-(2′-oxo-7′-(1-(thiazol-2-yl)vinyl)spiro[cyclobutane-1,3′-indolin]-5′-yl)benzenesulfonamide]	< 600
CN1CCCC(Nc2cc(NS(=O)(=O)c3ccc(F)cc3F)cc3c2NC(=O)C32CCC2)C1 (single isomer, unassigned) [Compound 35, 2,4-Difluoro-N-(7′-((1-methylpiperidin-3-yl)amino)-2′-oxospiro[cyclobutane-1,3′-indolin]-5′-yl)benzenesulfonamide]	600 to 1000
COC(=O)c1ccc(S(=O)(=O)Nc2cc(C(=O)NC3CCN(C)CC3)c3c(c2)C2(CCC2)C(=O)N3)c(F)c1 [Compound 80, Methyl 3-fluoro-4-(N-(7′-((1-methylpiperidin-4-yl)carbamoyl)-2′-oxospiro[cyclobutane-1,3′-indolin]-5′-yl)sulfamoyl)benzoate]	> 1000

Results, then the compound that gave them:

IC50 [nM]	SMILES
< 600	COc1ccccc1S(=O)(=O)Nc1cc(N)c2c(c1)C1(CCC1)C(=O)N2 [Compound 12, N-(7′-amino-2′-oxospiro[cyclobutane-1,3′-indolin]-5′-yl)-2-methoxy-benzenesulfonamide]
< 600	O=C(NC1CCCNC1)c1cc(NS(=O)(=O)c2ccc(F)cc2F)cc2c1NC(=O)C21CCC1 (centres unmarked) [Compound 65, 5′-(2,4-Difluorophenylsulfonamido)-2′-oxo-N-(piperidin-3-yl)spiro[cyclobutane-1,3′-indoline]-7′-carboxamide]
< 600	COc1ccccc1S(=O)(=O)Nc1cc(OCCCN(C)C)c2c(c1)C1(CCC1)C(=O)N2 [Compound 164, N-(7′-(3-(dimethylamino)propoxy)-2′-oxospiro[cyclobutane-1,3′-indolin]-5′-yl)-2-methoxybenzenesulfonamide]
< 600	COc1cc(F)ccc1S(=O)(=O)Nc1cc(Cc2ccccc2)c2c(c1)C1(CCC1)C(=O)N2 [Compound 94, N-(7′-benzyl-2′-oxospiro[cyclobutane-1,3′-indolin]-5′-yl)-4-fluoro-2-methoxybenzenesulfonamide]
< 600	COc1ccccc1S(=O)(=O)Nc1cc(OC2CCN(C)CC2F)c2c(c1)C1(CCC1)C(=O)N2 (single isomer, unassigned) [compound 191, N-(7′-((3-fluoro-1-methylpiperidin-4-yl)oxy)-2′-oxospiro[cyclobutane-1,3′-indolin]-5′-yl)-2-methoxybenzenesulfonamide]
< 600	CCN(C)CCOc1cc(NS(=O)(=O)c2ccccc2OC)cc2c1NC(=O)C21CCC1 [compound 196, N-(7′-(2-(ethyl(methyl)amino)ethoxy)-2′-oxospiro[cyclobutane-1,3′-indolin]-5′-yl)-2-methoxybenzenesulfonamide]
< 600	CN1CCC(NC(=O)c2cc(NS(=O)(=O)c3ccc(F)cc3F)cc3c2NC(=O)C32CCC2)CC1 [Compound 56, 5′-(2,4-Difluorophenylsulfonamido)-N-(1-methylpiperidin-4-yl)-2′-oxospiro[cyclobutane-1,3′-indoline]-7′-carboxamide]
< 600	O=C1Nc2c(OC3CCNCC3)cc(NS(=O)(=O)c3ccc(Cl)cc3F)cc2C12CCC2 [Compound-197, 4-Chloro-2-fluoro-N-(2′-oxo-7′-(piperidin-4-yloxy)spiro-[cyclobutane-1,3′-indolin]-5′-yl)benzene sulfonamide]
< 600	O=C1Nc2c(NC3CCNCC3)cc(NS(=O)(=O)c3ccc(F)cc3F)cc2C12CCC2 [Compound 79a, 2,4-Difluoro-N-(2′-oxo-7′-(piperidin-4-ylamino)spiro [cyclobutane-1,3′-indolin]-5′-yl)benzenesulfonamide]
< 600	COc1ccccc1S(=O)(=O)Nc1cc(C(C)c2ccccc2)c2c(c1)C1(CCC1)C(=O)N2 (single isomer, unassigned) [Compound 114, 2-Methoxy-N-(2′-oxo-7′-(1-phenylethyl)spiro [cyclobutane-1,3′-indolin]-5′-yl)benzenesulfonamide]
< 600	O=C(NC1CCOCC1)c1cc(NS(=O)(=O)c2ccc(F)cc2F)cc2c1NC(=O)C21CCC1 [Compound 50, 5′-(2,4-Difluorophenylsulfonamido)-2′-oxo-N-(tetrahydro-2H-pyran-4-yl)spiro[cyclobutane-1,3′-indoline]-7′-carboxamide]
< 600	COc1ccc(S(=O)(=O)Nc2cc(OC3CCN(C)CC3)c3c(c2)C2(CCC2)C(=O)N3)c(OC)c1 [compound 187, 2,4-Dimethoxy-N-(7′-((1-methylpiperidin-4-yl)oxy)-2′-oxospiro[cyclobutane-1,3′-indolin]-5′-yl)benzenesulfonamide]
< 600	CN1CCc2ccc(-c3cc(NS(=O)(=O)c4ccc(F)cc4F)cc4c3NC(=O)C43CCC3)cc2C1 [Compound 106, 2,4-Difluoro-N-(7′-(2-methyl-1,2,3,4-tetrahydroisoquinolin-7-yl)-2′-oxospiro[cyclobutane-1,3′-indolin]-5′-yl)benzenesulfonamide]
< 600	O=C1CCC(Oc2cc(NS(=O)(=O)c3ccc(Cl)cc3F)cc3c2NC(=O)C32CCC2)CC1 [Compound 176, 4-chloro-2-fluoro-N-(2′-oxo-7′-((4-oxocyclohexyl)oxy)spiro[cyclobutane-1,3′-indolin]-5′-yl)benzenesulfonamide]
< 600	COc1ccccc1S(=O)(=O)Nc1cc(OCC2COCCN2)c2c(c1)C1(CCC1)C(=O)N2 (centres unmarked) [Compound-203, 2-Methoxy-N-(7′-(morpholin-3-ylmethoxy)-2′-oxospiro[cyclobutane-1,3′-indolin]-5′-yl)benzenesulfonamide]
< 600	COc1ccccc1S(=O)(=O)Nc1cc(Oc2ccc(N)nc2)c2c(c1)C1(CCC1)C(=O)N2 [Compound 145, N-(7′-((6-aminopyridin-3-yl)oxy)-2′-oxospiro[cyclobutane-1,3′-indolin]-5′-yl)-2-methoxybenzenesulfonamide]
< 600	Cc1nc(CNc2cc(NS(=O)(=O)c3ccc(F)cc3F)cc3c2NC(=O)C32CCC2)c[nH]1 [Compound 30, 2,4-Difluoro-N-(7′-(((2-methyl-1H-imidazol-4-yl)methyl)amino)-2′-oxospiro[cyclobutane-1,3′-indolin]-5′-yl)benzenesulfonamide]
< 600	COc1ccccc1S(=O)(=O)Nc1cc(C(C)c2ccccc2)c2c(c1)C1(CCC1)C(=O)N2 (centres unmarked) [Compound 113, 2-Methoxy-N-(2′-oxo-7′-(1-phenylethyl)spiro [cyclobutane-1,3′-indolin]-5′-yl)benzenesulfonamide]
< 600	NC1(COc2cc(NS(=O)(=O)c3ccc(Cl)cc3F)cc3c2NC(=O)C32CCC2)CC1 [compound 207, N-(7′-((1-aminocyclopropyl)methoxy)-2′-oxospiro[cyclobutane-1,3′-indolin]-5′-yl)-4-chloro-2-fluorobenzenesulfonamide]

same assay, conditions: IC50, Bet BRD4 full length bromodomain protein, 300 nM acetyl histone peptide substrate

SMILES	IC50 [nM]
COc1ccccc1S(=O)(=O)Nc1cc(OC(=O)N2CCN(C)CC2)c2c(c1)C1(CCC1)C(=O)N2 [Compound 169, 5′-((2-Methoxyphenyl)sulfonamido)-2′-oxospiro[cyclobutane-1,3′-indolin]-7′-yl 4-methylpiperazine-1-carboxylate]	< 600
